Assay results: patent publication EP1247803A2, “Indolinone compounds suitable for modulation of protein kinases” (Sugen, Inc., priority 1996, dated 1998)

Key:
PDGF-R = PDGF-R (Homo sapiens, UniProt P09619); assay: PDGF-R ELISA; type: cell-based
Text: A PDGF-R ELISA is described in International Patent Publication No. WO 96/40116, published December 19, 1996 by Tang et al.

FLK-1 receptor = molecular target: T1, FLK-1 receptor (Mus musculus, UniProt P35918); assay: FLK-1 ELISA (kinase activity of the FLK-1 receptor in FLK-1/NIH3T3 cells, VEGF stimulated); type: cell-based
T1 construct: expressed in transfected cells; host or cells: NIH3T3 C7#3
T1 sequence (P35918 20-1345): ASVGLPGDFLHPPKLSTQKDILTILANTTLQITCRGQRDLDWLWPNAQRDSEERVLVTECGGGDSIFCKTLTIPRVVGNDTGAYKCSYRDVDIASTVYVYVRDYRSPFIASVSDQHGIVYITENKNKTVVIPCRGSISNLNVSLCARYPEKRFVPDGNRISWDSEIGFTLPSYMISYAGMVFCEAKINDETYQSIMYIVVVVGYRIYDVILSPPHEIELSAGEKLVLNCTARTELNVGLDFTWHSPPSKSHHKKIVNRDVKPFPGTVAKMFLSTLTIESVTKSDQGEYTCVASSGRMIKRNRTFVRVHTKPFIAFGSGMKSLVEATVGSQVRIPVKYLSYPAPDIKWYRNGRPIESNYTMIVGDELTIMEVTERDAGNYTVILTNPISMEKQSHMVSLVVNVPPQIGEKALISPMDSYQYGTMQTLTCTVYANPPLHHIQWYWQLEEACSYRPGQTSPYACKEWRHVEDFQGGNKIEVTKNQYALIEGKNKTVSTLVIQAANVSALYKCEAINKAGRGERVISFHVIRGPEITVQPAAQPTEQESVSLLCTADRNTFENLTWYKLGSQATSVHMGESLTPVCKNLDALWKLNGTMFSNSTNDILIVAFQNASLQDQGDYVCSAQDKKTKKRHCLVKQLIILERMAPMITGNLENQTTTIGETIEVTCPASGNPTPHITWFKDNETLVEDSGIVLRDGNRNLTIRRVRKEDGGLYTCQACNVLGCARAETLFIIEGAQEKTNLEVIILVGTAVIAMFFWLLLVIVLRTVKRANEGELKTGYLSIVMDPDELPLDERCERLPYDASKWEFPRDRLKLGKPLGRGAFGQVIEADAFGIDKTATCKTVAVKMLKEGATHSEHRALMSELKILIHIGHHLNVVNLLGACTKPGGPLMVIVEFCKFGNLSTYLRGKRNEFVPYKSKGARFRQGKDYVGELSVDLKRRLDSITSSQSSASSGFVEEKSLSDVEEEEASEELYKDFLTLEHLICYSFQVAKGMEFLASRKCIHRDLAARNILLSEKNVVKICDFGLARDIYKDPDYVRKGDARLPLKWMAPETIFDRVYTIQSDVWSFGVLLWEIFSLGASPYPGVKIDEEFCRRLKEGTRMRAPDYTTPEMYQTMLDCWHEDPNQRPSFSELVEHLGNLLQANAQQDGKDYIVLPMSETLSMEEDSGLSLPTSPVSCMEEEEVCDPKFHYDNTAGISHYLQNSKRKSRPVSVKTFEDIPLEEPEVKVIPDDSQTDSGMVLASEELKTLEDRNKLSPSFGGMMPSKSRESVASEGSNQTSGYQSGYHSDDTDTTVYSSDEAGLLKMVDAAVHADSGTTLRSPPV
How it was run: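 NIH3T3 C7#3 cells expressing FLK-1 were seeded at 25.000 cells/well, serum-starved overnight in 0.1% FBS, then treated with compound for two hours at 37°C (final DMSO 0.5%) before VEGF stimulation. Receptor was captured on anti-rabbit IgG-coated ELISA plates bearing affinity-purified anti-FLK-1 antiserum.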

Sequence of PDGF-R (P09619 33-1106, species assumed): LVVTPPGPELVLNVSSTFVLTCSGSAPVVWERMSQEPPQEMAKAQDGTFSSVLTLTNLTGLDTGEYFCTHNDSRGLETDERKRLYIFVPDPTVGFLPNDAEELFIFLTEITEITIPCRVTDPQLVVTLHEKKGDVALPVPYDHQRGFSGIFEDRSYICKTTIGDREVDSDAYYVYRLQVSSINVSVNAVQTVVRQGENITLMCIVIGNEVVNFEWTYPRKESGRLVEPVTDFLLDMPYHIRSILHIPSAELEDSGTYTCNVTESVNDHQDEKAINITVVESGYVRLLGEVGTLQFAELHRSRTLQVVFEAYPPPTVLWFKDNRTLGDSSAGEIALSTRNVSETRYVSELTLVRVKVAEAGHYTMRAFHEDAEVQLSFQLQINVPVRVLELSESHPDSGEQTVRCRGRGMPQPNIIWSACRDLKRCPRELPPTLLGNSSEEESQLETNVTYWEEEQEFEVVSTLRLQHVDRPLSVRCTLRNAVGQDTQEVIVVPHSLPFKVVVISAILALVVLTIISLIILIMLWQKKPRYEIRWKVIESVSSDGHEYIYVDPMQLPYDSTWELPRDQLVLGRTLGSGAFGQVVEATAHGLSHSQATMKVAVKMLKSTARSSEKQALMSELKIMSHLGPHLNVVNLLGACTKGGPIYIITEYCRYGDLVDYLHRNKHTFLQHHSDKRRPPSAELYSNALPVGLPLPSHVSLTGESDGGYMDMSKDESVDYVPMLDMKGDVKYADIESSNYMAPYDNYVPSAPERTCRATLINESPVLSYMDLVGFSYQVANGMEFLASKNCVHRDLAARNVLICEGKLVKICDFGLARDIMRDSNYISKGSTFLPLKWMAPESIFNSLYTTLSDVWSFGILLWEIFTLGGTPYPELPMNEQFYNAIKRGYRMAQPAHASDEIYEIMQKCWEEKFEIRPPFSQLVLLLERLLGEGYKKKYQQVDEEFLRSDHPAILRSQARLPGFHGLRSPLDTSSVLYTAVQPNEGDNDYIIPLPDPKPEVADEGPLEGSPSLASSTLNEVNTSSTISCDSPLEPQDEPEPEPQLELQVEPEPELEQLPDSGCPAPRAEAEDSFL

Structure (SMILES)	PDGF Kinase %Inhibition (PDGF-R)	Fik Kinase %Inhibition (FLK-1 receptor)
CC(C)(C)c1cc(C=C2C(=O)Nc3c(Br)cc(Br)cc32)cc(I)c1OCc1ccccc1 [10733/A02]	11.5%	-5.2%
COc1c([N+](=O)[O-])cc(C=C2C(=O)Nc3c(Br)cc(Br)cc32)cc1C(C)(C)C [10733/A03]	23.2%	45.0%
COc1c(C(C)(C)C)cc(C=C2C(=O)Nc3c(Br)cc(Br)cc32)cc1C(C)(C)C [10733/A04]	-14.1%	-11.2%
CC(C)(C)c1cc(C=C2C(=O)Nc3c(Br)cc(Br)cc32)cc(C(C)(C)C)c1OCc1ccccc1 [10733/A05]	-4.0%	-23.3%
COc1c(C)cc(C=C2C(=O)Nc3c(Br)cc(Br)cc32)cc1C [10733/A06]	-24.3%	-16.6%
Cc1cc(C=C2C(=O)Nc3c(Br)cc(Br)cc32)cc(C)c1OCc1ccccc1 [10733/A07]	-12.9%	-27.4%
COc1cc(Br)cc(C=C2C(=O)Nc3c(Br)cc(Br)cc32)c1O [10733/A08]	-10.1%	-17.1%
O=C1Nc2c(Br)cc(Br)cc2C1=Cc1cc(Br)ccc1O [10733/A09]	-7.6%	-11.9%
O=C1Nc2c(Br)cc(Br)cc2C1=Cc1cc([N+](=O)[O-])ccc1O [10733/A10]	-13.3%	-9.3%
COc1c(O)ccc(C=C2C(=O)Nc3c(Br)cc(Br)cc32)c1[N+](=O)[O-] [10733/A11]	4.2%	15.0%
CC(C)(C)c1cc(C=C2C(=O)Nc3ccc(I)cc32)cc(I)c1OCc1ccccc1 [10733/B02]	14.7%	-7.4%
COc1c([N+](=O)[O-])cc(C=C2C(=O)Nc3ccc(I)cc32)cc1C(C)(C)C [10733/B03]	35.8%	3.1%
COc1c(C(C)(C)C)cc(C=C2C(=O)Nc3ccc(I)cc32)cc1C(C)(C)C [10733/B04]	24.9%	-3.3%
CC(C)(C)c1cc(C=C2C(=O)Nc3ccc(I)cc32)cc(C(C)(C)C)c1OCc1ccccc1 [10733/B05]	27.3%	-1.1%
COc1c(C)cc(C=C2C(=O)Nc3ccc(I)cc32)cc1C [10733/B06]	-9.2%	4.6%
Cc1cc(C=C2C(=O)Nc3ccc(I)cc32)cc(C)c1OCc1ccccc1 [10733/B07]	4.2%	1.2%
COc1cc(Br)cc(C=C2C(=O)Nc3ccc(I)cc32)c1O [10733/B08]	-15.7%	-16.0%
O=C1Nc2ccc(I)cc2C1=Cc1cc(Br)ccc1O [10733/B09]	7.0%	-2.6%
O=C1Nc2ccc(I)cc2C1=Cc1cc([N+](=O)[O-])ccc1O [10733/B10]	-59.6%	5.7%
COc1c(O)ccc(C=C2C(=O)Nc3ccc(I)cc32)c1[N+](=O)[O-] [10733/B11]	23.7%	22.5%
Cc1c(Br)ccc2c1C(=Cc1cc(I)c(OCc3ccccc3)c(C(C)(C)C)c1)C(=O)N2 [10733/C02]	15.1%	5.8%

Structure (SMILES)	PDGF Kinase %Inhibition (PDGF-R)	Fik Kinase %Inhibition (FLK-1 receptor)
COc1c([N+](=O)[O-])cc(C=C2C(=O)Nc3ccc(Br)c(C)c32)cc1C(C)(C)C [10733/C03]	28.1%	17.0%
COc1c(C(C)(C)C)cc(C=C2C(=O)Nc3ccc(Br)c(C)c32)cc1C(C)(C)C [10733/C04]	19.2%	8.4%
Cc1c(Br)ccc2c1C(=Cc1cc(C(C)(C)C)c(OCc3ccccc3)c(C(C)(C)C)c1)C(=O)N2 [10733/C05]	11.1%	11.5%
COc1c(C)cc(C=C2C(=O)Nc3ccc(Br)c(C)c32)cc1C [10733/C06]	20.0%	4.7%
Cc1cc(C=C2C(=O)Nc3ccc(Br)c(C)c32)cc(C)c1OCc1ccccc1 [10733/C07]	4.6%	1.2%
COc1cc(Br)cc(C=C2C(=O)Nc3ccc(Br)c(C)c32)c1O [10733/C08]	-3.6%	-28.5%
Cc1c(Br)ccc2c1C(=Cc1cc(Br)ccc1O)C(=O)N2 [10733/C09]	91.9%	-18.0%
Cc1c(Br)ccc2c1C(=Cc1cc([N+](=O)[O-])ccc1O)C(=O)N2 [10733/C10]	-6.4%	-7.6%
COc1c(O)ccc(C=C2C(=O)Nc3ccc(Br)c(C)c32)c1[N+](=O)[O-] [10733/C11]	62.2%	42.8%
CNS(=O)(=O)c1ccc2c(c1)C(=Cc1cc(I)c(OCc3ccccc3)c(C(C)(C)C)c1)C(=O)N2 [10733/D02]	17.6%	3.1%
CNS(=O)(=O)c1ccc2c(c1)C(=Cc1cc([N+](=O)[O-])c(OC)c(C(C)(C)C)c1)C(=O)N2 [10733/D03]	40.7%	33.2%
CNS(=O)(=O)c1ccc2c(c1)C(=Cc1cc(C(C)(C)C)c(OC)c(C(C)(C)C)c1)C(=O)N2 [10733/D04]	26.5%	15.5%
CNS(=O)(=O)c1ccc2c(c1)C(=Cc1cc(C(C)(C)C)c(OCc3ccccc3)c(C(C)(C)C)c1)C(=O)N2 [10733/D05]	16.8%	16.5%
CNS(=O)(=O)c1ccc2c(c1)C(=Cc1cc(C)c(OC)c(C)c1)C(=O)N2 [10733/D06]	1.3%	17.9%
CNS(=O)(=O)c1ccc2c(c1)C(=Cc1cc(C)c(OCc3ccccc3)c(C)c1)C(=O)N2 [10733/D07]	0.9%	-1.4%
CNS(=O)(=O)c1ccc2c(c1)C(=Cc1cc(Br)cc(OC)c1O)C(=O)N2 [10733/D08]	42.3%	-8.3%
CNS(=O)(=O)c1ccc2c(c1)C(=Cc1cc(Br)ccc1O)C(=O)N2 [10733/D09]	33.8%	9.8%
CNS(=O)(=O)c1ccc2c(c1)C(=Cc1cc([N+](=O)[O-])ccc1O)C(=O)N2 [10733/D10]	-10.1%	2.9%
CNS(=O)(=O)c1ccc2c(c1)C(=Cc1ccc(O)c(OC)c1[N+](=O)[O-])C(=O)N2 [10733/D11]	-4.0%	1.0%
CC(C)(C)c1cc(C=C2C(=O)Nc3ccc(S(=O)(=O)Nc4ccc(C(F)(F)F)cc4)cc32)cc(I)c1OCc1ccccc1 [10733/E02]	20.8%	0.8%
